Where two headings read alike, the source gives them in different places.
Experiments:
[1] = biological target: human EGFR L858R (NIH/3T3 cells) (Homo sapiens, UniProt P00533, L858R); assay: EGFR target modulation in engineered NIH/3T3 cell lines (phospho-EGFR Y1068 AlphaLISA), EGFR L858R; format: cell-based; conditions: engineered NIH/3T3 cells, read-out: NIH3T3 IC50 (μM) EGFR (L858R)
Method in brief: (§1)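 Engineered NIH/3T3 cells were plated overnight, then exposed to a 12-point 1:3 compound series (from a 10 μM stock) for 3 hours at 37 °C. WT-expressing cells alone were stimulated with 50 ng/ml EGF for 5 minutes before lysis. IC50s came from non-linear fits of AlphaLISA signal.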

H1975 (EGFR L858/T790M) = H1975 (EGFR L858/T790M) (Homo sapiens, UniProt P00533, L858R/T790M); assay: EGFR target modulation in H1975 cell line (phospho-EGFR Y1173 ELISA); format: cell-based
Protocol: (§2) EGFR Target Modulation in H1975, H3255 and HCC827 Cell Lines Tissue Culture. Cells were maintained in 10% FBS/RPMI supplemented with 100 μg/ml Penicillin/Streptomycin (Hyclone #SH30236.01). […] The cells were allowed to incubate overnight in a 37° C., 5% CO2 humidified tissue culture incubator. […] The serial diluted compounds were transferred to the plate containing cells by using a 50 nl Pin Head device (Perkin Elmer) and the cells were placed back in the incubator for 3 hours. Phospho-EGFR ([…]) Target Modulation Assay. The media was reduced to 20 ul using a Bio-Tek ELx 405 SelectTM plate washer. […] The plates were shaken at 4° C. for 20 minutes. An aliquot of 25 ul from each well was transferred to pEGFR(Y1173) ELISA plates for analysis. Phospho-EGFR ([…]) ELISA. Solid white high-binding ELISA plates (Greiner #781074) were coated with 5 ug/ml anti-EGFR capture antibody (R&D Systems #AF231) overnight in 50 mM carbonate/bicarbonate pH 9.5 buffer. Plates were blocked with 1% BSA (Sigma #A7030) in PBS for 1 hour at room temperature. Wash steps were carried out with a Bio-Tek ELx405 SelectTM using 4 cycles of 100 ul TBS-T (20 mM Tris, 137 mM NaCl, 0.05% Tween-20) per well. […] Lysis was allowed to occur for 20 minutes on ice. A 25 ul aliquot was added to each well of the blocked ELISA plate and incubated overnight at 4° C. with gentle shaking. […] After washing, 1:2,000 anti-rabbit-HRP (Cell Signaling #7074) in 0.2% BSA/TBS-T was added and incubated for 1 hour at room temperature. Chemiluminescent detection was carried out with SuperSignal ELISA Pico substrate (ThermoScientific #37069). Signal was read on EnVision plate reader using built-in UltraLUM setting. Data Analysis. Control cells treated with EGF were set to 100% maximum response. […] With these parameters, the IC50's for each compound in each cell line was calculated using non-linear curve fitting analysis.

EGFR(L858R/T790M) = biological target: T1, EGFR(L858R/T790M) (Homo sapiens, UniProt P00533, L858R/T790M); assay: EGFR biochemical assay (HTRF), IC50 determinations
T1 construct: purchased from Carna (GST-a.a. 669-1210)
Method in brief: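 Two formats were run: compound preincubated at room temperature with enzyme and biotin-TK peptide before ATP starts the reaction, or no preincubation with enzyme added last. Reactions ran 60 min at room temperature and were stopped with EDTA. Phosphopeptide was read by HTRF (PT66K/SAXL, 1 h).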

[2] = biological target: human EGFR L858R/T790M (NIH/3T3 cells) (Homo sapiens, UniProt P00533, L858R/T790M); assay: EGFR target modulation in engineered NIH/3T3 cell lines (phospho-EGFR Y1068 AlphaLISA), EGFR L858R/T790M; format: cell-based; conditions: engineered NIH/3T3 cells, read-out: NIH3T3 IC50 (μM) EGFR (L858R/T790M)
Method in brief: as §1

[3] = biological target: human EGFR WT (NIH/3T3 cells, EGF-induced) (Homo sapiens, UniProt P00533); assay: EGFR target modulation in engineered NIH/3T3 cell lines (phospho-EGFR Y1068 AlphaLISA), EGFR WT; format: cell-based; conditions: engineered NIH/3T3 cells, read-out: NIH3T3 IC50 (μM) EGFR (WT)
Method in brief: as §1

HEKn (EGFR WT) = HEKn (EGFR WT) (Homo sapiens, UniProt P00533); assay: EGFR target modulation in HEKn (EGFR-WT) cell line (phospho-EGFR Y1173 ELISA); format: cell-based; conditions: value outside parentheses
Protocol: EGFR Target Modulation in HEKn (EGFR-WT) Cell Line Tissue Culture. Human neonatal epithelial keratinocytes (Invitrogen #C-001-5C) were maintained in EpiLife media (Invitrogen #[…]) supplemented with growth factors (Invitrogen #S-001-5). Cells were harvested with 0.05% Trypsin/EDTA (Hyclone #SH30236.01) and quenched with 5% FBS/EpiLife media. […] The serial diluted compounds were transferred to the plate containing cells by using a 50 nl Pin Head device (Perkin Elmer) and the cells were placed back in the incubator for 3 hours. […] Phospho-EGFR (Y1173) ELISA. Solid white high-binding ELISA plates (Greiner #781074) were coated with 5 ug/ml anti-EGFR capture antibody (R&D Systems #AF231) overnight in 50 mM carbonate/bicarbonate pH 9.5 buffer. […] Wash steps were carried out with a Bio-Tek ELx405 SelectTM using 4 cycles of 100 ul TBS-T (20 mM Tris, 137 mM NaCl, 0.05% Tween-20) per well. […] Lysis was allowed to occur for 20 minutes on ice. A 25 ul aliquot was added to each well of the blocked ELISA plate and incubated overnight at 4° C. with gentle shaking. […] After washing, 1:2,000 anti-rabbit-HRP (Cell Signaling #7074) in 0.2% BSA/TBS-T was added and incubated for 1 hour at room temperature. Chemiluminescent detection was carried out with SuperSignal ELISA Pico substrate (ThermoScientific #37069). Signal was read on EnVision plate reader using built-in UltraLUM setting. Data Analysis. Control cells treated with EGF were set to 100% maximum response. […] With these parameters, the IC50's for each compound in each cell line was calculated using non-linear curve fitting analysis.

H3255 (EGFR L858R) = H3255 (EGFR L858R) (Homo sapiens, UniProt P00533, L858R); assay: EGFR target modulation in H3255 cell line (phospho-EGFR Y1173 ELISA); format: cell-based
Protocol: as §2

[4] = EGFR (L858R/T790M) with 90 min pre-incubation, read-out: IC50 (μM) Column B
[5] = EGFR (L858R/T790M) with no pre-incubation, read-out: IC50 (μM) Column A

Chain of human EGFR L858R/T790M (NIH/3T3 cells) (P00533 25-1210 T790M/L858R): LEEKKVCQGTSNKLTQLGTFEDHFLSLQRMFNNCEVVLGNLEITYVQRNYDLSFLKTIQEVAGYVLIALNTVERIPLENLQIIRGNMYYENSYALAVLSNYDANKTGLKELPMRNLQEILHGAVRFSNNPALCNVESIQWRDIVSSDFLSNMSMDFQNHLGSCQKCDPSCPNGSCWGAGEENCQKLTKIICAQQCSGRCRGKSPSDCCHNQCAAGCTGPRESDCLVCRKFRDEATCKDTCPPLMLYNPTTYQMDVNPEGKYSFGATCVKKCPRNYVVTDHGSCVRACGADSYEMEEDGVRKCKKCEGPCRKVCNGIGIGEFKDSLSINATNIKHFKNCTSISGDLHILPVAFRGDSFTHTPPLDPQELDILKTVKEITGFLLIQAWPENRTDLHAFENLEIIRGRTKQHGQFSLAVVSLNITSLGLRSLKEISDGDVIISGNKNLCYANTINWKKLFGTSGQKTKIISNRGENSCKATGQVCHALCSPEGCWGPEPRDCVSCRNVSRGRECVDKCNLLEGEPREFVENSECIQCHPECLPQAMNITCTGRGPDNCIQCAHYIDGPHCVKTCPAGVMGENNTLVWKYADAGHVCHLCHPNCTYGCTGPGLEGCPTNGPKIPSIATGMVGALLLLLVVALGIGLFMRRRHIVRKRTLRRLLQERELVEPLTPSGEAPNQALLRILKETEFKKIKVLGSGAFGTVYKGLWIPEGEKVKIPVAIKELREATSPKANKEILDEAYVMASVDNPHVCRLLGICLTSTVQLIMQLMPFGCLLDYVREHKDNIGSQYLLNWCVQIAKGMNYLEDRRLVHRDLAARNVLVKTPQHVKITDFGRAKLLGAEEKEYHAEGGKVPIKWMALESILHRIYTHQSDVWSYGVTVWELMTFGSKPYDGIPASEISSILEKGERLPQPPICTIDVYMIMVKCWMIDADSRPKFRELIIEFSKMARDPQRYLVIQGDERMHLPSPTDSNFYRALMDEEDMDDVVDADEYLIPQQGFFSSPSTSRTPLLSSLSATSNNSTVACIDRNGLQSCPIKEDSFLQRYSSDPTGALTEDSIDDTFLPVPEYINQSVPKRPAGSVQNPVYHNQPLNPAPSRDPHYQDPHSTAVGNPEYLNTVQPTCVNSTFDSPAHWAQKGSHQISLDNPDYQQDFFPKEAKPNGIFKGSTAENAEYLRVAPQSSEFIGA
Chain of H1975 (EGFR L858/T790M) (P00533 25-1210 T790M/L858R): as above
T1 sequence (P00533 669-1210 T790M/L858R): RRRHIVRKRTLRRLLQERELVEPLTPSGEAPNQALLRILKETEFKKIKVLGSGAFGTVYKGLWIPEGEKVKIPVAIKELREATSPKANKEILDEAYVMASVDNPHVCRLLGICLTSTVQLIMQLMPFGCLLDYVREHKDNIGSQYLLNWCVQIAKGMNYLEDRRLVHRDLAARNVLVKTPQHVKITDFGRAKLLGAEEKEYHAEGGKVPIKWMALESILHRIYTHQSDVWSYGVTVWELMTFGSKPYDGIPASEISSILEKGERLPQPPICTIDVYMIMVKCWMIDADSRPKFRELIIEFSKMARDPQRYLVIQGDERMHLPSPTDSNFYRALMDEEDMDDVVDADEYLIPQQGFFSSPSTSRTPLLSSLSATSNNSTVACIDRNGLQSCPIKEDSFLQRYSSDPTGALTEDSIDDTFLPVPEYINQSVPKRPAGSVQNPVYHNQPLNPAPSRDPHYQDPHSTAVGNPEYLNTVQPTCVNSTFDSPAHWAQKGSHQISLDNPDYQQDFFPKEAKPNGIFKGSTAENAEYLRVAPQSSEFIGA
Chain of human EGFR L858R (NIH/3T3 cells) (P00533 25-1210 L858R): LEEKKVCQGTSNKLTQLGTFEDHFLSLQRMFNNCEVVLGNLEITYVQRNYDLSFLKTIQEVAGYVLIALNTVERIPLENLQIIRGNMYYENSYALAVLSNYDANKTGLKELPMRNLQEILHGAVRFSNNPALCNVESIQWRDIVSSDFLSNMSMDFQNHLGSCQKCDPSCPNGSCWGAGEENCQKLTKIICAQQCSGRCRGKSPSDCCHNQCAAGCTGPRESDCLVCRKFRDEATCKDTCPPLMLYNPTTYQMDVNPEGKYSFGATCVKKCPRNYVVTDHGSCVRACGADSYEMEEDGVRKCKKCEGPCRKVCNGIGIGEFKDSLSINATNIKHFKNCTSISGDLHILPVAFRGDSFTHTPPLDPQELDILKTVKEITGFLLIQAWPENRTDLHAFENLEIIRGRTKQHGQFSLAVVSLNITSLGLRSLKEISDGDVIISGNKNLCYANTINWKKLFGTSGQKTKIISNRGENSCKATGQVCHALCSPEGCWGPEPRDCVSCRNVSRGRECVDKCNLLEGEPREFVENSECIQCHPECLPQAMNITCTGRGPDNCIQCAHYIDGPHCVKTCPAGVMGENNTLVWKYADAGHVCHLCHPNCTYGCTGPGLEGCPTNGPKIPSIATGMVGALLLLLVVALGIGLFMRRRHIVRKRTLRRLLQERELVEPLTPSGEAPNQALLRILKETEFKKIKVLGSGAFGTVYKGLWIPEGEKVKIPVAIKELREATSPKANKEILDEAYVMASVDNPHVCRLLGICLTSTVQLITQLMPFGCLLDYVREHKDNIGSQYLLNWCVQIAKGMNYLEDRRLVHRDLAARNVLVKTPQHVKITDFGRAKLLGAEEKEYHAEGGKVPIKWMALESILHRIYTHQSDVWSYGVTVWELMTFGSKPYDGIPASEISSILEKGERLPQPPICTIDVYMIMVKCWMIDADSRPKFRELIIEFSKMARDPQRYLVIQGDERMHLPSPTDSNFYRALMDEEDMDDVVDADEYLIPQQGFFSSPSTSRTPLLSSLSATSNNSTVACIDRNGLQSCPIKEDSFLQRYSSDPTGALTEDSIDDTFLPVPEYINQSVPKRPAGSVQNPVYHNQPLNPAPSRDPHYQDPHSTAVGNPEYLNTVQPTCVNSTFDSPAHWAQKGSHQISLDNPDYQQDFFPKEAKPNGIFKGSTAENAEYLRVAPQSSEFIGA

SMILES	IC50 [1]	IC50 (H1975 (EGFR L858/T790M))	IC50 (EGFR(L858R/T790M); [4])	IC50 (EGFR(L858R/T790M); [5])	IC50 [2]	IC50 [3]	IC50 (HEKn (EGFR WT))	IC50 (H3255 (EGFR L858R))
Cc1cc(C(=O)Nc2nc3cccc(C)c3n2[C@@H]2CCCN(C(=O)/C=C/CN(C)C)C2)ccn1 [Example 17-4]	0.062 µM	105 nM	0.006 µM	0.135 µM	0.058 µM	1.4 µM	> 10000 nM	156 nM
C=CC(=O)N1CCCC[C@@H](n2c(NC(=O)c3ccnnc3)nc3cccc(Cl)c32)C1 [Example 17-15]	0.017 µM	6 nM	< 0.001 µM	0.012 µM	0.006 µM	0.204 µM	259 nM	22 nM
CN(C)C/C=C/C(=O)N1CCCC[C@@H](n2c(NC(=O)c3ccnnc3)nc3cccc(Cl)c32)C1 [Example 17-16]	0.015 µM	10 nM	< 0.001 µM	0.007 µM	0.017 µM	0.282 µM	295 nM	28 nM
C=CC(=O)N1CCCC[C@@H](n2c(NC(=O)c3ccnc(C)c3)nc3cccc(Cl)c32)C1 [Example 17-17]	0.008 µM	3 nM	< 0.001 µM	0.004 µM	0.005 µM	0.211 µM	176 nM	8 nM
Cc1cccc2nc(NC(=O)c3ccnnc3)n(C3CCCCN(C(=O)/C=C/CN(C)C)C3)c12 (centres unmarked) [Example 17-24]	0.005 µM	7 nM	< 0.001 µM	0.006 µM	0.006 µM	0.094 µM	225 nM	9 nM
Cc1cccc2nc(NC(=O)c3cccc(C(F)(F)F)c3)n(C3CCCCN(C(=O)/C=C/CN(C)C)C3)c12 (centres unmarked) [Example 17-25]	0.002 µM	2 nM	< 0.001 µM	< 0.002 µM	< 0.001 µM	0.057 µM	251 nM	26 nM
Cc1cccc2nc(NC(=O)c3ccc(F)cc3)n(C3CCCCN(C(=O)/C=C/CN(C)C)C3)c12 (centres unmarked) [Example 17-26]	0.003 µM	5 nM	< 0.001 µM	0.005 µM	0.005 µM	0.139 µM	190 nM	15 nM
Cc1cccc2nc(NC(=O)c3cccc(F)c3F)n(C3CCCCN(C(=O)/C=C/CN(C)C)C3)c12 (centres unmarked) [Example 17-27]	0.012 µM	12 nM	0.002 µM	0.021 µM	0.005 µM	0.67 µM	1000 nM	88 nM
Cc1cccc2nc(NC(=O)c3ccc(F)cc3F)n(C3CCCCN(C(=O)/C=C/CN(C)C)C3)c12 (centres unmarked) [Example 17-28]	0.004 µM	24 nM	< 0.001 µM	0.014 µM	0.01 µM	0.283 µM	370 nM	81 nM
Cc1cccc2nc(NC(=O)c3cc(F)ccc3F)n(C3CCCCN(C(=O)/C=C/CN(C)C)C3)c12 (centres unmarked) [Example 17-29]	0.028 µM	93 nM	< 0.001 µM	0.02 µM	0.017 µM	0.82 µM	2610 nM	290 nM
Cc1cccc2nc(NC(=O)c3ccc(F)c(F)c3)n(C3CCCCN(C(=O)/C=C/CN(C)C)C3)c12 (centres unmarked) [Example 17-30]	0.003 µM	10 nM	< 0.001 µM	0.005 µM	0.004 µM	0.167 µM	313 nM	37 nM
Cc1cccc2nc(NC(=O)c3cc(F)c(F)c(F)c3)n(C3CCCCN(C(=O)/C=C/CN(C)C)C3)c12 (centres unmarked) [Example 17-33]	0.002 µM	5 nM	< 0.001 µM	0.008 µM	0.005 µM	0.224 µM	259 nM	65 nM
Cc1cccc2nc(NC(=O)c3ccncc3)n(C3CCCCN(C(=O)/C=C/CN(C)C)C3)c12 (centres unmarked) [Example 17-35]	0.005 µM	4 nM	< 0.001 µM	0.006 µM	0.005 µM	0.14 µM	285 nM	5 nM
Cc1cccc2nc(NC(=O)c3ccncn3)n(C3CCCCN(C(=O)/C=C/CN(C)C)C3)c12 (centres unmarked) [Example 17-37]	0.032 µM	128 nM	0.005 µM	0.062 µM	0.042 µM	1.65 µM	> 10000 nM	135 nM
Cc1cccc2nc(NC(=O)c3ccccc3)n(C3CCCCN(C(=O)/C=C/CN(C)C)C3)c12 (centres unmarked) [Example 17-40]	0.017 µM	7 nM	< 0.001 µM	0.007 µM	0.008 µM	0.49 µM	760 nM	130 nM
Cc1cccc2nc(NC(=O)c3cccc(C#N)c3)n(C3CCCCN(C(=O)/C=C/CN(C)C)C3)c12 (centres unmarked) [Example 17-42]	0.002 µM	2 nM	< 0.001 µM	< 0.002 µM	0.002 µM	0.053 µM	206 nM	13 nM
COc1ccc(C(=O)Nc2nc3cccc(C)c3n2C2CCCCN(C(=O)/C=C/CN(C)C)C2)cn1 (centres unmarked) [Example 17-45]	0.002 µM	7 nM	< 0.001 µM	0.006 µM	0.003 µM	0.057 µM	142 nM	3 nM
Cc1cccc2nc(NC(=O)c3ccc(C(F)(F)F)nc3)n(C3CCCCN(C(=O)/C=C/CN(C)C)C3)c12 (centres unmarked) [Example 17-46]	0.002 µM	132 nM	0.005 µM	0.092 µM	0.031 µM	0.057 µM	212 nM	5 nM
Cc1ccc(C(=O)Nc2nc3cccc(C)c3n2C2CCCCN(C(=O)/C=C/CN(C)C)C2)cn1 (centres unmarked) [Example 17-47]	0.002 µM	17 nM	< 0.001 µM	0.009 µM	0.003 µM	0.052 µM	186 nM	4 nM
